Measurements taken from PubChem BioAssay AID248 (DTP/NCI, 2004).
“And” between values parts separate entries of the source, which are not always exact repeats. Equal entries are not always repeated. Toxic doses and inconclusive results are not listed.

Test system: L1210 leukemia ip in BDF1 mice, survival T/C
Test: NCI In Vivo Anticancer Drug Screen. Data for tumor model L1210 Leukemia (intraperitoneal) in B6D2F1 (BDF1) mice
Settings: endpoint: mean survival time, higher = longer survival
How it was run: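 Read-out is survival time, reported as the treated-group measurement over the vehicle-control measurement.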

[1] = dose: 50.0 mg/kg/injection, schedule: Q01DX009 (ip), vehicle: saline
[2] = dose: 100.0 mg/kg/injection, schedule: Q01DX001 (ip), vehicle: saline
[3] = dose: 100.0 mg/kg/injection, schedule: Q01DX009 (ip), vehicle: saline
[4] = dose: 200.0 mg/kg/injection, schedule: Q01DX001 (ip), vehicle: saline
[5] = dose: 200.0 mg/kg/injection, schedule: Q01DX009 (ip), vehicle: saline
[6] = dose: 400.0 mg/kg/injection, schedule: Q01DX001 (ip), vehicle: saline
[7] = dose: 50.0 mg/kg/injection, schedule: Q01DX009 (ip), vehicle: saline with Tween-80
[8] = dose: 100.0 mg/kg/injection, schedule: Q01DX009 (ip), vehicle: saline with Tween-80
[9] = dose: 200.0 mg/kg/injection, schedule: Q01DX009 (ip), vehicle: saline with Tween-80
[10] = dose: 100.0 mg/kg/injection, schedule: Q01DX001 (ip), vehicle: carboxymethylcellulose (CMC)
[11] = dose: 200.0 mg/kg/injection, schedule: Q01DX001 (ip), vehicle: carboxymethylcellulose (CMC)
[12] = dose: 400.0 mg/kg/injection, schedule: Q01DX001 (ip), vehicle: carboxymethylcellulose (CMC)
[13] = dose: 100.0 mg/kg/injection, schedule: Q04DX003 (ip), vehicle: saline with Tween-80
[14] = dose: 200.0 mg/kg/injection, schedule: Q04DX003 (ip), vehicle: saline with Tween-80
[15] = dose: 400.0 mg/kg/injection, schedule: Q04DX003 (ip), vehicle: saline with Tween-80
[16] = dose: 100.0 mg/kg/injection, schedule: Q01DX009 (ip), vehicle: Klucel (hydroxypropylcellulose) (HPC)
[17] = dose: 200.0 mg/kg/injection, schedule: Q01DX009 (ip), vehicle: Klucel (hydroxypropylcellulose) (HPC)

SMILES: N=[N+]=CC(=O)CC(N)C(=O)O (centres undefined)
- T/C (dose: 50.0 mg/kg/injection, schedule: Q01DX001 (ip), vehicle: saline): 94 % of control
- T/C [1]: 104 % of control
- T/C [2]: 94 % of control
- T/C [3]: 107 % of control
- T/C (dose: 128.0 mg/kg/injection, schedule: Q03HX024 (ip), vehicle: saline): 117 % of control
- T/C [4]: 99 % of control
- T/C [5]: 113 % of control
- T/C (dose: 256.0 mg/kg/injection, schedule: Q04DX003 (ip), vehicle: saline): 102 % of control
- T/C [6]: 96 % of control
- T/C (dose: 512.0 mg/kg/injection, schedule: Q04DX003 (ip), vehicle: saline): 105 % of control
- T/C (dose: 1024.0 mg/kg/injection, schedule: Q04DX003 (ip), vehicle: saline): 108 % of control

SMILES: O=C(O)c1c(O)c2cc(Cl)ccc2oc1=O
- T/C [2]: 98 % of control
- T/C [6]: 98 % of control

SMILES: CC1(C)CC(=O)C(c2ccc([N+](=O)[O-])cc2)=C(O)c2ccccc21
- T/C [7]: 91 % of control
- T/C [8]: 94 % of control
- T/C [9]: 91 % of control

SMILES: CCOP(=O)(CI)Oc1ccc([N+](=O)[O-])cc1 (centres undefined)
- T/C (dose: 0.5 mg/kg/injection, schedule: Q01DX001 (ip), vehicle: saline): 100 % of control
- T/C (dose: 1.0 mg/kg/injection, schedule: Q01DX001 (ip), vehicle: saline): 102 % of control
- T/C (dose: 2.0 mg/kg/injection, schedule: Q01DX001 (ip), vehicle: saline): 100 % of control

SMILES: NC(=O)c1cc(Cl)nc(Cl)n1
- T/C (dose: 25.0 mg/kg/injection, schedule: Q01DX Z (ip), vehicle: methylcellulose (MC)): 98 % of control
- T/C (dose: 50.0 mg/kg/injection, schedule: Q01DX Z (ip), vehicle: methylcellulose (MC)): 96 % of control

SMILES: Cc1ccnc(NC(C#N)c2ccccc2)c1 (centres undefined)
- T/C (dose: 12.5 mg/kg/injection, schedule: Q01DX009 (ip), vehicle: saline with Tween-80): 93 % of control
- T/C (dose: 25.0 mg/kg/injection, schedule: Q01DX009 (ip), vehicle: saline with Tween-80): 97 % of control
- T/C [7]: 93 % of control and 100 % of control

SMILES: O=NN(CCCl)C(=O)Nc1ccc(C(=O)O)cc1
- T/C (dose: 1.5 mg/kg/injection, schedule: Q01DX Z (ip), vehicle: saline): 171 % of control
- T/C (dose: 2.0 mg/kg/injection, schedule: Q01DX Z (ip), vehicle: saline): 162 % of control
- T/C (dose: 2.5 mg/kg/injection, schedule: Q01DX001 (ip), vehicle: carboxymethylcellulose (CMC)): 118 % of control and 124 % of control
- T/C (dose: 3.75 mg/kg/injection, schedule: Q## X001 (ip), vehicle: carboxymethylcellulose (CMC)): 106 % of control
- T/C (dose: 4.5 mg/kg/injection, schedule: Q01DX Z (ip), vehicle: carboxymethylcellulose (CMC)): 151 % of control
- T/C (dose: 5.0 mg/kg/injection, schedule: Q01DX001 (ip), vehicle: carboxymethylcellulose (CMC)): 153 % of control and 182 % of control
- T/C (dose: 9.0 mg/kg/injection, schedule: Q01DX Z (ip), vehicle: carboxymethylcellulose (CMC)): 117 % of control
- T/C (dose: 15.0 mg/kg/injection, schedule: Q01DX001 (ip), vehicle: carboxymethylcellulose (CMC)): 151 % of control and 168 % of control and 190 % of control
- T/C (dose: 15.0 mg/kg/injection, schedule: Q## X001 (ip), vehicle: carboxymethylcellulose (CMC)): 152 % of control
- T/C (dose: 20.0 mg/kg/injection, schedule: Q01DX001 (ip), vehicle: carboxymethylcellulose (CMC)): 152 % of control
- T/C (dose: 30.0 mg/kg/injection, schedule: Q01DX001 (ip), vehicle: carboxymethylcellulose (CMC)): 218 % of control and 227 % of control
- T/C (dose: 30.0 mg/kg/injection, schedule: Q## X001 (ip), vehicle: carboxymethylcellulose (CMC)): 191 % of control

SMILES: COc1ccccc1CN1CCCN(Cc2ccccc2OC)C1c1cc(OC)c(O)c(OC)c1
- T/C [10]: 98 % of control
- T/C [11]: 91 % of control
- T/C [12]: 96 % of control

SMILES: Nc1ncnc2nc(-c3ccc(SCc4ccccc4)cc3)[nH]c12
- T/C [7]: 93 % of control and 89 % of control
- T/C (dose: 100.0 mg/kg/injection, schedule: Q01DX001 (ip), vehicle: saline with Tween-80): 91 % of control
- T/C [8]: 99 % of control and 103 % of control and 104 % of control
- T/C (dose: 100.0 mg/kg/injection, schedule: Q04DX002 (ip), vehicle: saline with Tween-80): 103 % of control
- T/C (dose: 200.0 mg/kg/injection, schedule: Q01DX001 (ip), vehicle: saline with Tween-80): 87 % of control
- T/C [9]: 96 % of control and 103 % of control and 86 % of control
- T/C (dose: 200.0 mg/kg/injection, schedule: Q04DX002 (ip), vehicle: saline with Tween-80): 97 % of control and 100 % of control
- T/C (dose: 400.0 mg/kg/injection, schedule: Q01DX001 (ip), vehicle: saline with Tween-80): 91 % of control
- T/C (dose: 400.0 mg/kg/injection, schedule: Q04DX002 (ip), vehicle: saline with Tween-80): 94 % of control and 100 % of control

SMILES: c1ccc2nc(C3CO3)cnc2c1 (centres undefined)
- T/C [13]: 100 % of control
- T/C [14]: 91 % of control
- T/C [15]: 99 % of control

SMILES: CCOC(=O)C(Br)(C(=O)OCC)C(C)C
- T/C [3]: 101 % of control
- T/C [5]: 95 % of control
- T/C (dose: 400.0 mg/kg/injection, schedule: Q01DX009 (ip), vehicle: saline): 100 % of control

SMILES: CCOC(=O)CC1CCN(C(=O)c2ccccc2)C(Cc2c[nH]c3ccccc23)C1=O (centres undefined)
- T/C [2]: 95 % of control
- T/C [4]: 94 % of control
- T/C [6]: 94 % of control

SMILES: CN(CCN(C)Cc1ccccc1)Cc1ccccc1
- T/C [1]: 98 % of control
- T/C [3]: 101 % of control
- T/C (dose: 100.0 mg/kg/injection, schedule: Q04DX003 (ip), vehicle: saline): 103 % of control
- T/C (dose: 200.0 mg/kg/injection, schedule: Q04DX003 (ip), vehicle: saline): 98 % of control

SMILES: O=C(Oc1ccccc1)C(Cc1ccccc1)(Cc1ccccc1)C(=O)Oc1ccccc1
- T/C [10]: 101 % of control
- T/C [11]: 95 % of control
- T/C [12]: 93 % of control

SMILES: CC1(C)OC(CF)C2OC(C)(C)OC(CF)C2O1 (centres undefined)
- T/C (dose: 56.25 mg/kg/injection, schedule: Q01DX009 (ip), vehicle: carboxymethylcellulose (CMC)): 95 % of control
- T/C [10]: 96 % of control
- T/C (dose: 112.5 mg/kg/injection, schedule: Q01DX009 (ip), vehicle: carboxymethylcellulose (CMC)): 102 % of control
- T/C [11]: 96 % of control
- T/C [12]: 104 % of control

SMILES: CCOc1ccc(NC(=O)c2ccccc2Cl)cc1
- T/C [16]: 98 % of control
- T/C [17]: 95 % of control
- T/C (dose: 400.0 mg/kg/injection, schedule: Q01DX009 (ip), vehicle: Klucel (hydroxypropylcellulose) (HPC)): 103 % of control

SMILES: COc1cc(C2c3cc4c(cc3C(O)C(CO)C2CO)OCO4)cc(OC)c1OC (centres undefined)
- T/C (dose: 8.75 mg/kg/injection, schedule: Q01DX Z (ip), vehicle: carboxymethylcellulose (CMC)): 100 % of control
- T/C (dose: 11.5 mg/kg/injection, schedule: Q01DX Z (ip), vehicle: carboxymethylcellulose (CMC)): 108 % of control
- T/C (dose: 17.0 mg/kg/injection, schedule: Q01DX Z (ip), vehicle: carboxymethylcellulose (CMC)): 113 % of control
- T/C (dose: 17.5 mg/kg/injection, schedule: Q01DX Z (ip), vehicle: carboxymethylcellulose (CMC)): 114 % of control
- T/C (dose: 26.0 mg/kg/injection, schedule: Q01DX Z (ip), vehicle: carboxymethylcellulose (CMC)): 120 % of control
- T/C (dose: 35.0 mg/kg/injection, schedule: Q01DX Z (ip), vehicle: carboxymethylcellulose (CMC)): 106 % of control
- T/C (dose: 37.5 mg/kg/injection, schedule: Q04DX003 (ip), vehicle: saline): 98 % of control
- T/C (dose: 50.0 mg/kg/injection, schedule: Q01DX001 (ip), vehicle: carboxymethylcellulose (CMC)): 95 % of control
- T/C (dose: 70.0 mg/kg/injection, schedule: Q01DX Z (ip), vehicle: carboxymethylcellulose (CMC)): 98 % of control
- T/C (dose: 75.0 mg/kg/injection, schedule: Q04DX003 (ip), vehicle: saline): 118 % of control
- T/C [10]: 104 % of control
- T/C (dose: 140.0 mg/kg/injection, schedule: Q01DX Z (ip), vehicle: carboxymethylcellulose (CMC)): 100 % of control and 121 % of control
- T/C (dose: 150.0 mg/kg/injection, schedule: Q04DX003 (ip), vehicle: saline): 110 % of control
- T/C [11]: 101 % of control
- T/C (dose: 280.0 mg/kg/injection, schedule: Q01DX Z (ip), vehicle: carboxymethylcellulose (CMC)): 105 % of control
- T/C [12]: 98 % of control

SMILES: CC(C)(C)c1cc(C#N)cc(C(C)(C)C)c1O
- T/C (dose: 50.0 mg/kg/injection, schedule: Q01DX009 (ip), vehicle: Klucel (hydroxypropylcellulose) (HPC)): 96 % of control
- T/C [16]: 103 % of control
- T/C [17]: 96 % of control

SMILES: O=C(Nc1cccc2c1C(=O)c1cccc(Cl)c1C2=O)c1ccccc1
- T/C [13]: 87 % of control
- T/C [14]: 89 % of control
- T/C [15]: 86 % of control
